Experiments:
[1] = molecular target: T1, bCinS; 1,8-cineole synthase (Streptomyces clavuligerus, UniProt B5GMG2); experiment: X-ray crystal structure, FGPP soaked into FNPP co-crystal; EPR with Mn2+; type: binding; conditions: 1.51 A; partial exchange, mixed FNPP/FGPP occupancy; three Mg2+ (third partly occupied); active site
T1 construct: gene cnsA; full-length codon-optimized gene in pETM11, N-terminal 6xHis tag and TEV site, tag cleaved; E. coli ArcticExpress (DE3); ~330 residues; dimer

[2] = molecular target: T2, bLinS; linalool synthase; linalool/nerolidol synthase (Streptomyces clavuligerus, UniProt D5SL78); experiment: X-ray crystal structure, co-crystal; EPR with Mn2+; type: binding; conditions: 1.82 A; FGPP in monomer A only; one Mg2+; noncatalytic mode suggested; pH 7.5
T2 construct: gene SCLAV_p1185; full-length codon-optimized gene in pETM11, N-terminal 6xHis tag and TEV site, tag cleaved; E. coli ArcticExpress (DE3); ~330 residues; two molecules in asymmetric unit
T2 sequence (D5SL78 1-329): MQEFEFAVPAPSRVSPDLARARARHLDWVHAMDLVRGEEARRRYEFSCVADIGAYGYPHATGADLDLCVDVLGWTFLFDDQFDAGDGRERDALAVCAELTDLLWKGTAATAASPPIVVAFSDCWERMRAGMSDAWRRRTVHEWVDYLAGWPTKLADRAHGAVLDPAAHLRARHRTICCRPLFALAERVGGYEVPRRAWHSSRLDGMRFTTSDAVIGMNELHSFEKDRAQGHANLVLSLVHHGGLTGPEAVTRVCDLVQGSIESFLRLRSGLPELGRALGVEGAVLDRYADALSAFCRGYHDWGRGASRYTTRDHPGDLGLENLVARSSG

[3] = molecular target: T2, bLinS; linalool synthase; linalool/nerolidol synthase; experiment: product analysis by GC-MS in engineered E. coli; chiral GC; type: cell-based; conditions: host-made FPP in E. coli expressing bLinS; product trans-nerolidol

T1 sequence (B5GMG2 whole entry): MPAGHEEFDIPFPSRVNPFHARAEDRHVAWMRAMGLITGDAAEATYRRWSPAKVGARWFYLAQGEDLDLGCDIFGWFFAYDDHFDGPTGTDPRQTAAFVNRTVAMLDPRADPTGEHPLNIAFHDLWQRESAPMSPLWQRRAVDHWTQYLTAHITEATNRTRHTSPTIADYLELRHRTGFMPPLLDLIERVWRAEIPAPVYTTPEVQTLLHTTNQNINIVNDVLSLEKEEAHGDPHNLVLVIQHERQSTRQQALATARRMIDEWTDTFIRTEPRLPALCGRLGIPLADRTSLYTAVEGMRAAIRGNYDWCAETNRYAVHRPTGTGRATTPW

SMILES | X-ray crystal structure, FGPP soaked into FNPP co-crystal; EPR with Mn2+ [1] | X-ray crystal structure, co-crystal; EPR with Mn2+ [2] | product analysis by GC-MS in engineered E. coli; chiral GC [3]
CC(C)=CCC/C(C)=C(\F)COP(=O)(O)OP(=O)(O)O [FGPP, 2-fluorogeranyl pyrophosphate] | Soaking of the bCinS-FNPP crystals with FGPP led to the partial exchange | clear electron density corresponding to FGPP is only present in monomer A | 
CC(C)=CCC/C(C)=C/CC/C(C)=C/COP(=O)(O)OP(=O)(O)O [FPP, farnesyl pyrophosphate] |  |  | Strains containing bLinS were able to convert FPP to nerolidol

Reference: publication PMC5617326, “Structural Basis of Catalysis in the Bacterial Monoterpene Synthases Linalool Synthase and 1,8-Cineole Synthase” (ACS Catalysis, 2017)
